# According to publication PMC3362725, “An open-label, phase 1 study evaluating safety, tolerability, and pharmacokinetics of linifanib (ABT-869) in Japanese patients with solid tumors” (Cancer Chemotherapy and Pharmacology, 2012):
# Where “and” joins values, the source holds several entries; their conditions need not be identical. Identical values can stand only once. Like-named read-outs stand apart in the source and are kept apart here.
# Columns and labels:
# [1] = design: method as in earlier work; conditions: Caucasian patients, 0.25 mg/kg single dose, mean ± SD, N 13; cited from earlier work
# [2] = design: method as in PMID 19720910; conditions: non-Japanese Asian patients, 0.10–0.30 mg/kg single dose, mean ± SD, N 31; calculated from ref 14; cited from earlier work
# [3] = Pharmacokinetics of oral linifanib in plasma and urine, non-compartmental analysis, phase 1 study; format: in vivo, human (Japanese patients with solid tumors); conditions: for DN AUC24 / DN C max: dose-normalized; for AUC: read-out: AUC24
# Experimental: Pharmacokinetic sampling occurred pre-dose and 0.5, 1, 2, 3, 4, 6, 8, and 24 h after single-dose linifanib on Cycle (C) 1D1, and pre-dose and 0.5, 1, 2, 3, 4, 6, and 8 h after multiple once-daily doses on C1D15. Urine was collected for 24-h after the C1D15 dose. Linifanib and its metabolite concentrations in plasma and urine were determined using a validated method based on triple quadruple tandem mass spectrometry with a lower limit of quantification of 1.0 ng/mL.
# Pharmacokinetic parameter (defined in Table 3) concentrations were determined by non-compartmental analysis using WinNonlin Professional v.5.2 (Pharsight Corp., Cary, NC). […] Additional samples were collected at C3D1 (pre-dose) and every second cycle until study completion or until C15D1. Concentrations for samples at C3D1 and subsequent samples, and data from C1D1 to C1D15 were included in the nonlinear mixed effects models to explore covariates such as age, body weight, and gender (data not shown). Following single-dose linifanib at 0.25 mg/kg, a post hoc analysis compared the pharmacokinetics between the Japanese patients in the current study and non-Japanese patients in two phase 1 studies: Caucasian patients receiving […] linifanib (Abbott, unpublished) and the non-Japanese segment of Asian patients receiving 0.10–0.30 mg/kg linifanib.
# solid tumors = experiment: Tumor response per RECIST (CT or MRI), phase 1 study; format: in vivo, human (Japanese patients with solid tumors)
# Experimental: Baseline evaluations included physical examination, body weight, vital signs, 12-lead electrocardiogram, ECOG PS assessment, pregnancy test, laboratory tests, and multiple-gated acquisition scan/echocardiogram. Tumor response and/or disease progression was assessed by computerized tomography (CT) scan or magnetic resonance imaging (MRI) per RECIST [20] at screening and on Day (D) 1 of every second cycle prior to the subsequent treatment period, until tumor progression or until final visit. Complete response and partial response (PR) were defined according to RECIST [20]; objective response rate (ORR) was defined as the proportion of patients with best response of PR or CR among the study population. Safety assessments included laboratory test results and adverse events (AEs), which were graded according to CTCAE v3 [18] and coded by medical dictionary of regulatory activities (MedDRA) 1.0.
# [4] = 0.05 mg/kg once daily, multiple dose (C1D15), mean ± SD, N 3
# [5] = 0.05 mg/kg oral, single dose (C1D1), mean ± SD, N 3
# [6] = 0.10 mg/kg once daily, multiple dose (C1D15), mean ± SD, N 5
# [7] = 0.10 mg/kg oral, single dose (C1D1), mean ± SD, N 6
# [8] = 0.20 mg/kg once daily, multiple dose (C1D15), mean ± SD, N 3
# [9] = 0.20 mg/kg oral, single dose (C1D1), mean ± SD, N 3
# [10] = 0.25 mg/kg once daily, multiple dose (C1D15), mean ± SD, N 5
# [11] = 0.25 mg/kg oral, single dose (C1D1), mean ± SD, N 6
# [12] = human, plasma, 0.1 mg/kg, 0.10 mg/kg oral, single dose (C1D1), mean ± SD, N 6
# [13] = human, plasma, 0.2 mg/kg, 0.20 mg/kg oral, single dose (C1D1), mean ± SD, N 3
# [14] = human, plasma, 0.05 mg/kg oral, single dose (C1D1), mean ± SD, N 3
# [15] = human, plasma, 0.25 mg/kg oral, single dose (C1D1), mean ± SD, N 6
compound,measurement,setting,value
"Cc1ccc(F)c(NC(=O)Nc2ccc(-c3cccc4[nH]nc(N)c34)cc2)c1 [linifanib, N-(4-(3-amino-1H-indazol-4-yl)phenyl)-N’-(2-fluoro-5-methylphenyl)urea]",DN AUC24,[1],0.21 ± 0.04 µg·h/mL/mg
same,DN C max,[1],0.018 ± 0.005 µg/mL/mg
same,T max,[1],1.77 ± 0.44 h
same,DN AUC24,[2],0.25 ± 0.10 µg·h/mL/mg
same,DN C max,[2],0.020 ± 0.008 µg/mL/mg
same,T max,[2],2.94 ± 1.27 h
same,R (accumulation ratio calculated as DN AUC24 between D15 and D1),"[3]; 0.05 mg/kg once daily, mean ± SD, N 3",1.58 ± 0.34
same,R (accumulation ratio calculated as DN AUC24 between D15 and D1),"[3]; 0.10 mg/kg once daily, mean ± SD, N 5",1.46 ± 0.27
same,R (accumulation ratio calculated as DN AUC24 between D15 and D1),"[3]; 0.20 mg/kg once daily, mean ± SD, N 3",1.56 ± 0.08
same,R (accumulation ratio calculated as DN AUC24 between D15 and D1),"[3]; 0.25 mg/kg once daily, mean ± SD, N 5",1.46 ± 0.23
same,dose proportionality of pharmacokinetics,"[3]; 0.10–0.25 mg/kg, single and once-daily dosing",dose-proportional
same,DN AUC24,[3]; [4],0.77 ± 0.18 µg·h/mL/mg
same,DN C max,[3]; [4],0.051 ± 0.007 µg/mL/mg
same,DN AUC24,[3]; [5],0.49 ± 0.08 µg·h/mL/mg
same,DN C max,[3]; [5],0.036 ± 0.007 µg/mL/mg
same,DN AUC24,[3]; [6],0.50 ± 0.11 µg·h/mL/mg
same,DN C max,[3]; [6],0.034 ± 0.008 µg/mL/mg
same,DN AUC24,[3]; [7],0.33 ± 0.04 µg·h/mL/mg
same,DN C max,[3]; [7],0.026 ± 0.004 µg/mL/mg
same,DN AUC24,[3]; [8],0.52 ± 0.02 µg·h/mL/mg
same,DN C max,[3]; [8],0.036 ± 0.003 µg/mL/mg
same,DN AUC24,[3]; [9],0.33 ± 0.01 µg·h/mL/mg
same,DN C max,[3]; [9],0.028 ± 0.007 µg/mL/mg
same,DN AUC24,[3]; [10],0.37 ± 0.06 µg·h/mL/mg
same,DN C max,[3]; [10],0.028 ± 0.002 µg/mL/mg
same,DN AUC24,[3]; [11],0.25 ± 0.02 µg·h/mL/mg
same,DN C max,[3]; [11],0.019 ± 0.004 µg/mL/mg
same,Cmax,[3]; [12],152 ± 36 ng/mL
same,AUC,[3]; [12],1910 ± 380 ng·h/mL
same,Tmax,"[3]; human, plasma, 0.1 mg/kg, 0.10 mg/kg oral, single dose (C1D1), mean ± SD, N 6, read-out: T max",1.67 ± 0.52 h
same,Cmax,[3]; [13],305 ± 70 ng/mL
same,AUC,[3]; [13],3600 ± 430 ng·h/mL
same,Tmax,"[3]; human, plasma, 0.2 mg/kg, 0.20 mg/kg oral, single dose (C1D1), mean ± SD, N 3, read-out: T max",1.67 ± 0.57 h
same,Cmax,"[3]; human, plasma, oral, 0.1 mg/kg, 0.10 mg/kg once daily, multiple dose (C1D15), mean ± SD, N 5",186 ± 64 ng/mL
same,Tmax,"[3]; human, plasma, oral, 0.1 mg/kg, 0.10 mg/kg once daily, multiple dose (C1D15), mean ± SD, N 5, read-out: T max",2.2 ± 0.45 h
same,AUC,"[3]; human, plasma, oral, 0.1 mg/kg, 0.10 mg/kg once daily, multiple dose (C1D15), pre-dose concentration assumed equal to 24 h, mean ± SD, N 5",2820 ± 1030 ng·h/mL
same,Cmax,"[3]; human, plasma, oral, 0.2 mg/kg, 0.20 mg/kg once daily, multiple dose (C1D15), mean ± SD, N 3",390 ± 41 ng/mL
same,Tmax,"[3]; human, plasma, oral, 0.2 mg/kg, 0.20 mg/kg once daily, multiple dose (C1D15), mean ± SD, N 3, read-out: T max",2.33 ± 0.58 h
same,AUC,"[3]; human, plasma, oral, 0.2 mg/kg, 0.20 mg/kg once daily, multiple dose (C1D15), pre-dose concentration assumed equal to 24 h, mean ± SD, N 3",5630 ± 920 ng·h/mL
same,half-life,"[3]; human, plasma, oral, after repeated daily dosing, associated with accumulation ratio 1.5, read-out: effective half-life (converted)",15 h
same,Cmax,"[3]; human, plasma, oral, 0.05 mg/kg once daily, multiple dose (C1D15), mean ± SD, N 3",128 ± 17 ng/mL
same,Tmax,"[3]; human, plasma, oral, 0.05 mg/kg once daily, multiple dose (C1D15), mean ± SD, N 3, read-out: T max",2.34 ± 0.57 h
same,AUC,"[3]; human, plasma, oral, 0.05 mg/kg once daily, multiple dose (C1D15), pre-dose concentration assumed equal to 24 h, mean ± SD, N 3",1920 ± 450 ng·h/mL
same,Cmax,"[3]; human, plasma, oral, 0.25 mg/kg once daily, multiple dose (C1D15), mean ± SD, N 5",418 ± 55 ng/mL
same,Tmax,"[3]; human, plasma, oral, 0.25 mg/kg once daily, multiple dose (C1D15), mean ± SD, N 5, read-out: T max",2.2 ± 0.45 h
same,AUC,"[3]; human, plasma, oral, 0.25 mg/kg once daily, multiple dose (C1D15), pre-dose concentration assumed equal to 24 h, mean ± SD, N 5",5460 ± 1160 ng·h/mL
same,Cmax,[3]; [14],90 ± 18 ng/mL
same,AUC,[3]; [14],1230 ± 210 ng·h/mL
same,Tmax,"[3]; human, plasma, 0.05 mg/kg oral, single dose (C1D1), mean ± SD, N 3, read-out: T max",1.65 ± 0.56 h
same,Cmax,[3]; [15],305 ± 68 ng/mL
same,AUC,[3]; [15],3780 ± 480 ng·h/mL
same,Tmax,"[3]; human, plasma, 0.25 mg/kg oral, single dose (C1D1), mean ± SD, N 6, read-out: T max",2.33 ± 1.03 h
same,Tmax,"[3]; human, plasma, across all dose levels (0.05–0.25 mg/kg oral), read-out: average T max",~2 h
same,ORR,"solid tumors; 2 of 18 patients, RECIST",11.1%
same,patients with tumor reduction >5% by RECIST,solid tumors; 12/18 patients,67%
same,patients with SD for ≥12 weeks,solid tumors; 18 patients,11
same,patients with confirmed PR,"solid tumors; 18 patients, 0.20 mg/kg (breast cancer) and 0.25 mg/kg (lung cancer)",Two
same,patients with reduction in summed tumor dimensions of ≥5%,"solid tumors; of the 18 patients, cohorts 0.10, 0.20, and 0.25 mg/kg",12 and 12/18
same,median duration of response,solid tumors; range 2.8–3.5,3.2 months
same,median progression-free survival (PFS),solid tumors; range 2.8–9.8,5.7 months
same,patients who continued linifanib with clinical benefit for ≥48 weeks,"solid tumors; sarcoma, breast, lung, thymic cancer, best response SD",Four
